Results: article PMC8244912, “An oxytocin/vasopressin-related neuropeptide modulates social foraging behavior in the clonal raider ant” (PLoS Biology, 2021)
Entries after “also recorded” stand apart in the source; their conditions may differ. Where a SMILES comes first, the peptide text is derived from it. Bridges are numbered along the chain shown (N, C = ends).

Tests used:
[1] = target: O. biroi inotocin receptor (ObiroiItr_A) (Ooceraea biroi, UniProt A0A8F5LPT9); experiment: Calcium flux, HEK293T cells transfected with full-length inotocin receptor (FLIPR Calcium 4); type: cell-based; settings: for HillSlope / LogEC50: variable slope; for LogEC50: X data log of Molar_Inotocin
From the text: RNA was isolated in TRIzol using the RNeasy (Qiagen, Germantown, Maryland, USA) purification kit with DNAse I (Qiagen) on-column digestion as in [52] from a sample that contained adult ants, larvae, and pupae and reverse-transcribed into cDNA. Full-length cDNAs for the O. biroi inotocin receptor were PCR amplified with primers 5′-[…]-3′ and 5′-[…]-3′, using the Easy-A high fidelity polymerase (Agilent, Santa Clara, California, USA) to generate PCR products with 5′-Kozak consensus sequences and 3′-A overhangs. The inotocin receptor cDNAs were cloned into the pcDNA3.3 TOPO TA cloning vector (Invitrogen, Waltham, Massachusetts, USA) following manufacturer’s guidelines.
The full-length inotocin receptor cDNA sequence that was cloned and used for calcium assays is ObiroiItr_A (GenBank MW660838; for protein sequence, see S1 Fig). We also tested splice variant ObiroiItr_H (GenBank MW660845; for protein sequence, see S1 Fig), which lacks TM4-7, for calcium activity.
Human embryonic kidney 293T (HEK293T) cells were cultured in DMEM supplemented with 10% FBS at 37°C in a tissue culture incubator with a humidified atmosphere containing 5% CO2. Cells were plated in 10-cm dishes, and, when they reached 60% to 70% confluency, they were transfected with a pcDNA3.3 vector containing approximately 1 ng of inotocin receptor cDNA or an empty vector as a control using Lipofectamine 2000. Cells were transfected directly into poly-D-lysine–coated 384-well plates and incubated for 48 hours at 37°C. Subsequently, cells were incubated with FLIPR Calcium 4 Assay kit dye for 1 hour in the incubator. The fluorescence (excitation, 488 nm; emission, 530 nm) of the wells was recorded using a Flex Station II 384 (Molecular Devices, San Jose, California, USA), […], in sextuplicate (see below for inotocin peptide synthesis). We calculated the EC50 values using Prism (GraphPad Software version 8) nonlinear regression, 4-parameter logistic curve fit. Dose curves were repeated at least 3 times on independently prepared samples and different days.

[2] = system: O. biroi inotocin receptor (itcR); experiment: Calcium flux, inotocin receptor co-transfected with G proteins or empty vector; type: cell-based, Ooceraea biroi
Method: Human embryonic kidney 293T (HEK293T) cells were cultured in DMEM supplemented with 10% FBS at 37°C in a tissue culture incubator with a humidified atmosphere containing 5% CO2. Cells were plated in 10-cm dishes, and, when they reached 60% to 70% confluency, they were transfected with a pcDNA3.3 vector containing approximately 1 ng of inotocin receptor cDNA or an empty vector as a control using Lipofectamine 2000. Cells were transfected directly into poly-D-lysine–coated 384-well plates and incubated for 48 hours at 37°C. Subsequently, cells were incubated with FLIPR Calcium 4 Assay kit dye for 1 hour in the incubator. The fluorescence (excitation, 488 nm; emission, 530 nm) of the wells was recorded using a Flex Station II 384 (Molecular Devices, San Jose, California, USA), and a dose curve of inotocin (0 to 3 μM) was applied to the wells, in sextuplicate (see below for inotocin peptide synthesis). We calculated the EC50 values using Prism (GraphPad Software version 8) nonlinear regression, 4-parameter logistic curve fit. Dose curves were repeated at least 3 times on independently prepared samples and different days. Results were consistent across replicates, and example dose curves are shown in Fig 1C and S4A Fig. Control experiments are shown in S2–S5 Figs.
(C and D) Co-transfection with Gq alpha 16. (E and F) Co-transfection with Gq alpha with Gi alpha C term chimera. […]

[3] = system: O. biroi inotocin receptor ObiroiItr_A; experiment: Calcium imaging (fura-2), full-length receptor isoform A with G protein 16; type: cell-based, Ooceraea biroi; settings: ObiroiItr_A and G protein 16; fura-2, 510 nm, ex 340/380 nm; peptide for 15 s
Method: Experiments were conducted following Garrison J.L., et al 2012 [8] with modifications. Human embryonic kidney 293T cells (HEK293T) were cultured in DMEM and supplemented with 10% FBS at 37 °C in a cell incubator containing 5% CO^2. Cells were grown in 35 mm MatTek glass bottom dishes to a level of 60 – 70% confluency. Cells were transfected with a 1:1 ratio of PCDNA3.3 containing ~ 1μg of itcR cDNA (full-length isoform A or truncated isoform H) (See S1 Fig for isoforms) and pcDNA3-alpha 16 (encoding promiscuous G protein 16) using Lipofectamine 2000. Cells were incubated for 24 h at 37 °C and then transferred to 28 °C for another 16-24 h. For control experiments, empty vector was also transfected. On the day of the experiment, the cells were loaded with […] fura-2/AM (Invitrogen) for 25 min at 37 °C. Inotocin peptide diluted in Ringer’s solution was applied to the cells for 15 s with a peristaltic pump, and fluorescence at 510 nm was monitored (excitation at 340/380 nm) using a MetaFluor calcium imaging system with a Nikon Eclipse TE2000U microscope.

O. biroi inotocin receptor (ObiroiItr_A), sequence (A0A8F5LPT9 entry or part of it): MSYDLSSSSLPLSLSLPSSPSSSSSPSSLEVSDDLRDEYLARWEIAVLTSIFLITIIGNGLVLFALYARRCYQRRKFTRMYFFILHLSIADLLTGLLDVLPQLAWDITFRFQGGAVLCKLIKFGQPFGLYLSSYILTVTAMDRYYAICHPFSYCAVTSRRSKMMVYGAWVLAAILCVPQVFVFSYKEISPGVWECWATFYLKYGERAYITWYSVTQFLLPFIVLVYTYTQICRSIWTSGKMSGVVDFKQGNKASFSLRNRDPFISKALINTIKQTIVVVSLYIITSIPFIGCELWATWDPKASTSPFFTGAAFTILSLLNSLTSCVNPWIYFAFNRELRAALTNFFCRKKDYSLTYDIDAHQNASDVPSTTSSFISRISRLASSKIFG

CC[C@H](C)[C@@H]1NC(=O)[C@H](CC(C)C)NC(=O)[C@@H](N)CSSC[C@@H](C(=O)N2CCC[C@H]2C(=O)N[C@@H](CCCNC(=N)N)C(=O)NCC(N)=O)NC(=O)[C@H](CC(N)=O)NC(=O)[C@H]([C@@H](C)O)NC1=O [Inotocin] (H-CLITNCPRG-NH2; disulfide 1-6; N-terminus and C-terminus assumed)
HillSlope ([1]; Fig 1C data, Experiment 33015, SE 0.01132, 95% CI 0.2802 to 0.3251): 0.3027 | LogEC50 ([1]; Fig 1C data, Experiment 33015, SE 0.05558, 95% CI -11.24 to -11.02): -11.13 | calcium response ([1]; HEK293T cells expressing full-length itcR): responds in a dose-dependent manner to inotocin; also recorded: responded with calcium signals | HillSlope ([1]; S4A Fig, 032515_plate 2, SE 0.02063, 95% CI 0.2625 to 0.3443): 0.3034 | LogEC50 ([1]; S4A Fig, 032515_plate 2, SE 0.1002, 95% CI -11.47 to -11.07): -11.27 | half-maximal effective concentration (EC50), in words ([1]; cells transfected with the inotocin receptor, calcium signals): picomolar | calcium response ([2]; co-transfection with Gq alpha 16, Gq alpha with Gi alpha C term chimera, or Gq alpha with Go alpha C term chimera compared with empty vector): does not require co-transfection with a G-protein | calcium response ([2]; itcR co-transfected with empty vector (no G protein), 28°C or constantly 37°C): response in a dose dependent manner; also recorded: show calcium responses when stimulated with inotocin | calcium signal [3]: Calcium signal is detected
